Some test systems named below: MDA-MB-435; MALME-3M melanoma; U251 CNS; SNB-19 CNS; OVCAR-3 ovarian; K-562 leukemia; DU-145 prostate; PC-3 prostate; SK-MEL-5 melanoma; HOP-62 NSCLC; A549 NSCLC; NCI-H226 lung; SR leukemia.
Common to all, as to experiment: inhibition of tumour cell growth, NCI panel, 48 h

The structures appear in SMILES notation.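 Tested at 5 concentrations; 48 h exposure; 96-well plates; endpoints linearly interpolated, else capped at highest concentration. Here, GI50 denotes the concentration required for 50% inhibition of growth. At the TGI there is no net growth.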

Take `C=C1c2ccccc2C(=O)c2c1c1c(C(=O)OC)c(O)ccc1n2Cc1ccccc1`: the TGI was found to be 0.885 µM in the test on MDA-MB-435; 1.18 µM in the test on MALME-3M melanoma; 0.763 µM in the test on U251 CNS; 1.52 µM with SNB-19 CNS; 0.392 µM in the test with OVCAR-3 ovarian; 1.55 µM with K-562 leukemia. The TGI in the test with DU-145 prostate worked out at 0.745 µM; with PC-3 prostate, 1.56 µM; in the test with SK-MEL-5 melanoma, 1.97 µM; in the test on HOP-62 NSCLC, 1.53 µM; in the test with A549 NSCLC it was 3.6 µM.

Regarding `CCOC(=O)C1=C(C)OC2(O)C=CC(O)=C3C(=O)N(c4ccccc4)C(=O)C312` (stereo not drawn), the TGI is above 100 µM in the test on MDA-MB-435; 80.3 µM in the test on NCI-H226 lung; 41.7 µM with MALME-3M melanoma; above 100 µM in the test with U251 CNS; 65.3 µM in the test with SNB-19 CNS; above 100 µM with OVCAR-3 ovarian. Besides, the TGI in the test with K-562 leukemia is above 100 µM; in the test on DU-145 prostate it was above 100 µM; with PC-3 prostate, above 100 µM; in the test with SR leukemia it was 53.2 µM; with HOP-62 NSCLC, above 100 µM; in the test with A549 NSCLC it was above 100 µM.

On to `Nc1ncnc2c1ncn2C=C=CCO`, for which the TGI with MDA-MB-435, in the test on NCI-H226 lung, with MALME-3M melanoma, in the test with U251 CNS, in the test with SNB-19 CNS and with OVCAR-3 ovarian was above 100 µM each time. For the same molecule, the TGI in the test on K-562 leukemia, in the test on DU-145 prostate, in the test with PC-3 prostate, in the test with SR leukemia, in the test on SK-MEL-5 melanoma and in the test on HOP-62 NSCLC was above 100 µM in each case.

Regarding `NN(CC(=O)O)CC(=O)O`, the TGI with MDA-MB-435, in the test with NCI-H226 lung, with MALME-3M melanoma, with U251 CNS, with SNB-19 CNS and with OVCAR-3 ovarian was above 100 µM in each case. Also, the TGI in the test with K-562 leukemia, in the test with DU-145 prostate, in the test with PC-3 prostate, in the test on SK-MEL-5 melanoma, in the test with HOP-62 NSCLC and with A549 NSCLC was above 100 µM each time.

Consider `CN1CCc2[nH]c3ccccc3c2C1`, for which the TGI in the test with NCI-H226 lung, with MALME-3M melanoma, in the test on U251 CNS, in the test on SNB-19 CNS, in the test with OVCAR-3 ovarian and in the test with K-562 leukemia was above 100 µM in each case. Besides, the TGI in the test on SK-MEL-5 melanoma, in the test with HOP-62 NSCLC and in the test on A549 NSCLC was above 100 µM in each case.

Take `CCCCCCCCCCCCCCCCCCOc1ccccc1CC(=O)OCC[N+]1(C)CCCCC1`: the GI50 was 1.7 µM in the test with MDA-MB-435; 2.18 µM in the test on NCI-H226 lung; 1.97 µM with MALME-3M melanoma; 2.05 µM with SNB-19 CNS; 2.83 µM in the test with K-562 leukemia; 3.02 µM in the test on DU-145 prostate. For the same molecule, the GI50 in the test with SR leukemia is 1.93 µM. The TGI in the test on MDA-MB-435 is 3.2 µM; with NCI-H226 lung it was 6.25 µM; in the test on MALME-3M melanoma it was 4.86 µM; in the test on SNB-19 CNS, 4.94 µM; in the test on K-562 leukemia it was 10.1 µM; in the test on DU-145 prostate, 9.61 µM. Besides, in the test with SR leukemia, the TGI was 4.97 µM.

As to `O=C(Nc1ccc(Cl)cc1)c1cc2cc(N=Nc3ccccc3Cl)ccc2oc1=O`, the TGI with NCI-H226 lung was 46.9 µM; with MALME-3M melanoma, 48.3 µM; in the test with U251 CNS it was 51 µM; with SNB-19 CNS, above 100 µM; in the test on OVCAR-3 ovarian, 75.6 µM; with K-562 leukemia it was 23.6 µM. For the same molecule, the TGI in the test with SR leukemia was 34.9 µM; in the test with SK-MEL-5 melanoma it was 61.9 µM; with HOP-62 NSCLC it was 61.9 µM; in the test with A549 NSCLC, above 100 µM.

Take `O=C([O-])C[n+]1ccccc1`: the TGI with MDA-MB-435, in the test on NCI-H226 lung, in the test with MALME-3M melanoma, with U251 CNS, in the test with SNB-19 CNS and in the test on OVCAR-3 ovarian was above 100 µM each time. The TGI in the test with K-562 leukemia, in the test on DU-145 prostate, with PC-3 prostate, with SK-MEL-5 melanoma, in the test on HOP-62 NSCLC and in the test on A549 NSCLC was above 100 µM throughout.

Take `COc1cc2c(c(O)c1OC)-c1c(cc(OC)c(OC)c1OC)CC(C)C(C)C2` (stereo not drawn): the TGI in the test on MDA-MB-435, in the test on NCI-H226 lung, in the test with MALME-3M melanoma, with U251 CNS, in the test on SNB-19 CNS and in the test on OVCAR-3 ovarian was above 100 µM throughout. For the same molecule, the TGI is above 100 µM in the test with K-562 leukemia; above 100 µM with DU-145 prostate; above 100 µM in the test with PC-3 prostate; 57 µM in the test on SR leukemia; above 100 µM in the test on SK-MEL-5 melanoma; above 100 µM in the test with HOP-62 NSCLC. The molecule also came in with a TGI in the test on A549 NSCLC above 100 µM.

As for `CN1CCOC(c2ccc(Cl)cc2)O1` (stereo not drawn), the TGI with MDA-MB-435, in the test with NCI-H226 lung, with MALME-3M melanoma, with U251 CNS, with SNB-19 CNS and in the test with OVCAR-3 ovarian was above 100 µM in each case. Moreover, the TGI in the test with K-562 leukemia, with PC-3 prostate, in the test with SR leukemia, with SK-MEL-5 melanoma, in the test on HOP-62 NSCLC and in the test on A549 NSCLC was above 100 µM throughout.

In the case of `CC(C)=CCC/C(C)=C/CC/C(C)=C/CC/C(C)=C/C=C/C=C(\C)CC/C=C(\C)CC/C=C(\C)CCC=C(C)C`, the TGI in the test with MDA-MB-435, in the test with NCI-H226 lung, with MALME-3M melanoma, in the test on U251 CNS, in the test on SNB-19 CNS and in the test on OVCAR-3 ovarian was above 100 µM each time. The TGI in the test on K-562 leukemia was above 31.6 µM; in the test on DU-145 prostate it was above 100 µM; in the test on PC-3 prostate, above 100 µM; with SK-MEL-5 melanoma it was above 79.9 µM; with HOP-62 NSCLC, above 100 µM; in the test with A549 NSCLC, above 100 µM.

As to `O=C(O)c1cc([N+](=O)[O-])cc2c(=O)c3cnccc3[nH]c12`, the TGI in the test on MDA-MB-435, in the test on NCI-H226 lung, in the test on MALME-3M melanoma, in the test with U251 CNS, in the test on SNB-19 CNS and in the test with OVCAR-3 ovarian was above 100 µM each time. In addition, the TGI with K-562 leukemia, in the test on DU-145 prostate, in the test with PC-3 prostate, in the test with SR leukemia, with SK-MEL-5 melanoma and in the test on HOP-62 NSCLC was above 100 µM each time.

Turning to `CN(C)CCCSc1nc2ccccc2[nH]1`, the TGI in the test on MDA-MB-435, in the test with NCI-H226 lung, in the test with MALME-3M melanoma, in the test with U251 CNS, with SNB-19 CNS and in the test with OVCAR-3 ovarian was above 100 µM in each case. Moreover, the TGI in the test with K-562 leukemia, with DU-145 prostate, in the test on SR leukemia, in the test on SK-MEL-5 melanoma, with HOP-62 NSCLC and in the test with A549 NSCLC was above 100 µM in each case.

Values taken from PubChem BioAssay (NCI).
